{"source": "patent US9326518B2", "about": "“Synergistic combination of a chlorotoluron compound and OIT for dry film protection” (Dow Global Technologies LLC, priority 2013, dated 2016)", "key": {"[1]": {"tested_on": "Stichococcus bacillaris SAG 379-1a / CCAP 379/1a", "assay": "Algal efficacy testing of dry paint films (modified ASTM 5589, 6-well plates)", "type": "cell-based", "details": "3 weeks; for % inhibition: at the Total conc, versus blank sample; for Total conc (concentration chosen as minimum inhibitory concentration, pass level ≧75% inhibition): total active ingredient in acrylic/silicone paint, dry film on filter paper", "procedure": "(§1) Slurries containing 33% antimicrobial active ingredient (chlorotoluron) were post added to a white, acrylic/silicone based outdoor paint free of biocides to give a total active ingredient concentration of 10000 and 1000 ppm respectively. KATHON™ 893T (100% OIT) was post added to a white, acrylic/silicone based outdoor paint free of biocides to give a total active ingredient concentration of 10000 and 1000 ppm respectively. These paints were then diluted with an antimicrobial free acrylic/silicone based paint and mixed to prepare targeted concentrations of antimicrobial compounds for the testing. The total biocides concentrations tested were 125, 250, 500, 1000, 2000 and 5000 ppm. After biocides addition or dilution, the paints were mixed 90 seconds with the horse power shaker (AXEL 75M3372/Agitateur SO-10MI) until uniformity was achieved. Paints containing different antimicrobial compounds at the same levels were mixed together in order to obtain the desired ratio of antimicrobial compounds. After one day, the paints were applied to Schleicher & Schuell filter paper at 280 μm wet film thickness and dried for 3 days at room temperature avoiding direct exposure to sunlight. Square discs (1.6 cm×1.6 cm) were cut out from each panel and were used as the substrate for algal efficacy tests. This sample size allowed for an agar border when the sample disc was placed into the well of the test plate.\n(§2) Algal efficacy was tested according to modified ASTM 5589 which is a standard accelerated test method for determining resistance of various coatings (including paints) to algal defacement. To accommodate for high-throughput screening, this method was scaled down from petri dishes to 6-well plates. Bold Modified Basal Freshwater Nutrient Solution was used as growth medium. A single coated filter paper coupon was placed with a pair of sterile forceps at the center of the agar plug (on top) with the painted surface facing upwards. Algal inoculums were prepared by mixing equal concentrations (1×10^6 cfu/ml) and equal volumes of exponentially growing algae cultures.\n(§3) Each well that contains a tested coupon was inoculated with 1750 μl of algal suspensions (1×10^6 cfu/ml) making sure that the whole surface (paint film as well as the agar surrounding it) was evenly covered. The plates were incubated at room temp (21° C.-25° C.) with cyclic exposure to light and dark phases, for a period of three weeks. The total area inhibited was evaluated at the end of each week according to percent area covered in 5% increments\n(§4) At the end of the three week incubation period, the samples were scored for percent inhibition regarding color intensity compared to the blank sample.\n(§5) The Synergy Index calculation was performed as follows.\n(§6) The SI is calculated based on F. C. Kull et.\n(§7) SI value of <1 in the formula indicates a synergism of the blended biocides exists.\n(§8) The minimal targeted inhibition was set at 75%, meaning a coupon with at least 75% algal growth inhibition was considered as a pass."}, "Chlorella sp. ATCC 7516": {"tested_on": "Chlorella sp. ATCC 7516", "assay": "Algal efficacy testing of dry paint films (modified ASTM 5589, 6-well plates)", "type": "cell-based", "details": "3 weeks; for % inhibition: at the Total conc, versus blank sample; for Total conc (concentration chosen as minimum inhibitory concentration, pass level ≧75% inhibition): total active ingredient in acrylic/silicone paint, dry film on filter paper", "procedure": "as §1, §2, §3, §4, §5, §6, §7, §8"}}, "data": [{"molecule": "Cc1ccc(NC(=O)N(C)C)cc1Cl", "note": "[Chlorotoluron, N′-(3-chloro-4-methylphenyl)-N,N-dimethylurea]", "values": [{"measurement": "% inhibition", "setting": "[1]", "value": 90, "unit": "%"}, {"measurement": "Total conc (concentration chosen as minimum inhibitory concentration, pass level ≧75% inhibition)", "setting": "[1]", "value": 500, "unit": "ppm"}, {"measurement": "% inhibition", "setting": "Chlorella sp. ATCC 7516", "value": 100, "unit": "%"}, {"measurement": "Total conc (concentration chosen as minimum inhibitory concentration, pass level ≧75% inhibition)", "setting": "Chlorella sp. ATCC 7516", "value": 1000, "unit": "ppm"}]}, {"molecule": "CCCCCCCCn1sccc1=O", "note": "[OIT, 2-n-octyl-4-isothiazolin-3-one]", "values": [{"measurement": "% inhibition", "setting": "[1]", "value": 60, "unit": "%"}, {"measurement": "Total conc (concentration chosen as minimum inhibitory concentration, pass level ≧75% inhibition)", "setting": "[1]", "value": 2000, "unit": "ppm"}, {"measurement": "% inhibition", "setting": "Chlorella sp. ATCC 7516", "value": 50, "unit": "%"}, {"measurement": "Total conc (concentration chosen as minimum inhibitory concentration, pass level ≧75% inhibition)", "setting": "Chlorella sp. ATCC 7516", "value": 2000, "unit": "ppm"}]}]}
